Assay results reported in patent US20190247376A1, “NICOTINIC ACETYLCHOLINE RECEPTOR AGONIST ATTENUATES ILC2-DEPENDENT AIRWAY HYPERREACTIVITY” (University of Southern California, priority 2016, published 2019).

System: Rag2−/− GC−/− mice
Assay: IL-33-induced AHR in Rag2−/− GC−/− mice after adoptive transfer of WT or α7nAChR-deficient ILC2s
Assay type: in vivo, mouse
Details: IL-33, agonist 125 μg days 1-3
Procedure: FIGS. 4A-4E: α7nAChR expression is critical for GTS-21 action on ILC2s in vivo. BALB/cByJ and α7nAChR^−/− mice were intranasally challenged with rm-IL-33 or PBS, and also given α7nAChR agonist (125 μg) or PBS on days 1-3. Measurement of lung function and analysis of BAL followed on day 4. (FIG. 4A) Lung resistance. (FIG. 4B) Total number of eosinophils in BALF. (FIG. 4C) Rag^−/− GC^−/− mice were received ILC2s from either WT or α7nAChR^−/− mice. After the adoptive transfer, mice were intranasally challenged with rm-IL-33 or PBS; they also received α7nAChR agonist (125 μg) or PBS on days 1-3. Measurement of lung function and analysis of BAL followed on day 4, according to scheme 4C. (FIG. 4D) Lung resistance. (FIG. 4E) Total number of eosinophils in BALF. Data are representative of at least three independent experiments and are presented as means±SEM (n=4; Student's test ***, p<0.001, WT IL-33+α7nAChR agonist vs. α7nAChR^−/− IL-33+α7nAChR agonist).
Given that a variety of cells participate in allergic inflammation, Applicants wanted to investigate the effect of the agonist specifically on ILC2s. Rag2^−/− GC^−/− mice lack not only B and T cells, but NK cells and ILC2s as well. Using methods previously described by our laboratory^36, Applicants adoptively transferred WT or α7nAChR-deficient ILC2s into these Rag2^−/− GC^−/− mice, and then treated them with IL-33, with or without α7nAChR agonist. As expected, Applicants observed a decrease of AHR and of eosinophil recruitment in mice injected with WT ILC2s in response to α7nAChR treatment (FIGS. 4C-4E).
Mice were intranasally (i.n.) administered carrier-free recombinant mouse IL-33 (BioLegend, San Diego Calif., 0.5 µg per mouse in 50 µL) with or without […] of α7nAChR agonist (kindly provided by Lin Chen) on three consecutive days. Mice were intranasally (i.n.) administered carrier-free recombinant mouse IL-25 (BioLegend, San Diego Calif., 5 µg per mouse in 50 µL) with or without […] of α7nAChR agonist on three consecutive days. For Alternaria alternata experiments, mice were i.n. administered Alternaria alternata (Greer Labs, Lenoir, N.C., 100 μg per mouse in 50 μL) with or without 125 µg α7nAChR agonist for four consecutive days. One day after the last challenge, mice were anesthetized using i.p. injection of ketamine (10 mg mL^−1) and xylazine (1 mg mL^−1). Measurements of airway resistance and dynamic compliance were conducted with the Fine Pointe RC System (Buxco Research Systems, Wilmington, N.C.), in which mice were mechanically ventilated using a modified version as previously described^36,67. […] Maximum lung resistance (RL) and minimum compliance (Cdyn) values were recorded during a three-minute period after each methacholine challenge.

[1] = Rag2−/− GC−/− mice injected with WT ILC2s
[2] = Rag2−/− GC−/− mice injected with α7nAChR-deficient ILC2s

COc1ccc(/C=C2\CCCN=C2c2cccnc2)c(OC)c1 [GTS-21, 3-[(3E)-3-[(2,4-dimethoxyphenyl)methylidene]-5,6-dihydro-4H-pyridin-2-yl]pyridine]
AHR [1]: decrease
eosinophil recruitment [1]: decrease
AHR [2]: affected neither AHR nor eosinophilia
eosinophilia [2]: affected neither AHR nor eosinophilia
